Data as given in patent US9630977B2, “Cephalosporin derivatives and pharmaceutical compositions thereof” (Legochem Biosciences, Inc., priority 2011, dated 2017).
In brackets after ≈: the same amount, converted by molar mass.

Columns and labels:
Assay in all cases: In vitro antibacterial activity test (broth microdilution)
Assay type in all cases: cell-based
M. catarrhalis 2524 = conditions: Moraxella catarrhalis; M. catarrhalis 2524; read-out: MIC90
Outline: (§1)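 Stocks at 10,240 ug/mL in DMSO, serially diluted in DMSO then water to final 0.0626–128 ug/mL (2.5% V/V DMSO). CLSI broth microdilution; MIC90, ug/mL.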

P. aeruginosa 1912E = conditions: Pseudomonas aeruginosa, 1912E, read-out: MIC90
Outline: as §1

A. baumannii 49 = conditions: Acinetobacter baumannii; A. baumannii 49; read-out: MIC90
Outline: as §1

E. cloacae β19 = conditions: Enterobacter cloacae, read-out: MIC90
Outline: as §1

P. aeruginosa 6065Y = conditions: Pseudomonas aeruginosa, read-out: MIC90
Outline: as §1

E. coli β4 = conditions: Escherichia coli, read-out: MIC90
Outline: as §1

K. pneumoniae β14 = conditions: Klebsiella pneumoniae, read-out: MIC90
Outline: as §1

K. pneumoniae β9 = conditions: Klebsiella pneumoniae, K. pneumoniae β9; read-out: MIC90
Outline: as §1

P. aeruginosa 37 = conditions: Pseudomonas aeruginosa, 37, P. aeruginosa 37; read-out: MIC90
Outline: as §1

A. baumannii 52 = conditions: Acinetobacter baumannii; A. baumannii 52; read-out: MIC90
Outline: as §1

K. pneumoniae β11 = conditions: Klebsiella pneumoniae; K. pneumoniae β11; read-out: MIC90
Outline: as §1

K. pneumoniae β10 = conditions: Klebsiella pneumoniae; K. pneumoniae β10; read-out: MIC90
Outline: as §1

K. pneumoniae β13 = conditions: Klebsiella pneumoniae, K. pneumoniae β13; read-out: MIC90
Outline: as §1

A. baumannii 46 = conditions: Acinetobacter baumannii; A. baumannii 46; read-out: MIC90
Outline: as §1

E. coli AG100 = conditions: Escherichia coli, AG100, E. coli AG100; read-out: MIC90
Outline: as §1

[1] = tested on: A. calcoaceticus ATCC15473; conditions: Acinetobacter calcoaceticus; A. calcoaceticus ATCC15473; read-out: MIC90
Outline: as §1

P. aeruginosa 40 = conditions: Pseudomonas aeruginosa, 40, P. aeruginosa 40; read-out: MIC90
Outline: as §1

P. aeruginosa 43 = conditions: Pseudomonas aeruginosa; P. aeruginosa 43; read-out: MIC90
Outline: as §1

K. pneumoniae 2011E = conditions: Klebsiella pneumoniae, 2011E, K. pneumoniae 2011E; read-out: MIC90
Outline: as §1

Structure (SMILES) | MIC90 (M. catarrhalis 2524) [µg/mL] | MIC90 (P. aeruginosa 1912E) [µg/mL] | MIC90 (A. baumannii 49) [µg/mL] | MIC90 (E. cloacae β19) [µg/mL] | MIC90 (P. aeruginosa 6065Y) [µg/mL] | MIC90 (E. coli β4) [µg/mL] | MIC90 (K. pneumoniae β14) [µg/mL] | MIC90 (K. pneumoniae β9) [µg/mL] | MIC90 (P. aeruginosa 37) [µg/mL] | MIC90 (A. baumannii 52) [µg/mL] | MIC90 (K. pneumoniae β11) [µg/mL] | MIC90 (K. pneumoniae β10) [µg/mL] | MIC90 (K. pneumoniae β13) [µg/mL] | MIC90 (A. baumannii 46) [µg/mL] | MIC90 (E. coli AG100) [µg/mL] | MIC90 [1] [µg/mL] | MIC90 (P. aeruginosa 40) [µg/mL] | MIC90 (P. aeruginosa 43) [µg/mL] | MIC90 (K. pneumoniae 2011E) [µg/mL]
CC(C)(O/N=C(\C(=O)N[C@@H]1C(=O)N2C(C(=O)[O-])=C(/C=C/C[n+]3cnc(N)c(NC(=O)CCNC(=O)c4cc(=O)c(O)cn4O)c3)CSC12)c1csc(N)n1)C(=O)O (some centres unmarked) [Compound 12] | 1 (≈ 1.21 µM) | 1 (≈ 1.21 µM) | > 128 | 4 (≈ 4.83 µM) | 2 (≈ 2.42 µM) | 0.25 (≈ 0.302 µM) | 8 (≈ 9.66 µM) | 0.25 (≈ 0.302 µM) | 8 (≈ 9.66 µM) | > 128 | 64 (≈ 77.3 µM) | 0.25 (≈ 0.302 µM) | < 0.0625 | 4 (≈ 4.83 µM) | 0.25 (≈ 0.302 µM) | 1 (≈ 1.21 µM) | 1 (≈ 1.21 µM) | 1 (≈ 1.21 µM) | 2 (≈ 2.42 µM)
CC(C)(O/N=C(\C(=O)N[C@@H]1C(=O)N2C(C(=O)[O-])=C(/C=C/C[n+]3cnc(N)c(NC(=O)CCNC(=O)c4cc(=O)c(O)c[nH]4)c3)CSC12)c1csc(N)n1)C(=O)O (some centres unmarked) [Compound 13] | 2 (≈ 2.46 µM) | 2 (≈ 2.46 µM) | > 128 | 8 (≈ 9.85 µM) | 8 (≈ 9.85 µM) | 2 (≈ 2.46 µM) | 8 (≈ 9.85 µM) | 1 (≈ 1.23 µM) | 8 (≈ 9.85 µM) | 128 (≈ 158 µM) | 64 (≈ 78.8 µM) | 1 (≈ 1.23 µM) | 1 (≈ 1.23 µM) | 8 (≈ 9.85 µM) | 1 (≈ 1.23 µM) | 2 (≈ 2.46 µM) | 2 (≈ 2.46 µM) | 4 (≈ 4.93 µM) | 2 (≈ 2.46 µM)
CC(C)(O/N=C(\C(=O)N[C@@H]1C(=O)N2C(C(=O)[O-])=C(/C=C/C[n+]3cnc(N)c(NC(=O)c4cc(=O)c(O)cn4O)c3)CSC12)c1csc(N)n1)C(=O)O (some centres unmarked) [Compound 14] | 0.25 (≈ 0.33 µM) | 1 (≈ 1.32 µM) | > 128 | 64 (≈ 84.6 µM) | 2 (≈ 2.64 µM) | 1 (≈ 1.32 µM) | 8 (≈ 10.6 µM) | 2 (≈ 2.64 µM) | 16 (≈ 21.1 µM) | 8 (≈ 10.6 µM) | 64 (≈ 84.6 µM) | 0.5 (≈ 0.661 µM) | 0.5 (≈ 0.661 µM) | 2 (≈ 2.64 µM) | 0.25 (≈ 0.33 µM) | 0.25 (≈ 0.33 µM) | 0.25 (≈ 0.33 µM) | 0.25 (≈ 0.33 µM) | 2 (≈ 2.64 µM)
CC(C)(O/N=C(\C(=O)N[C@@H]1C(=O)N2C(C(=O)[O-])=C(C[n+]3cnc(N)c(NCCNC(=O)c4cc(=O)c(O)cn4O)c3)CSC12)c1nc(N)sc1Cl)C(=O)O (some centres unmarked) [Compound 15] | 0.25 (≈ 0.309 µM) | 0.5 (≈ 0.619 µM) | 8 (≈ 9.9 µM) | 32 (≈ 39.6 µM) | 1 (≈ 1.24 µM) | 16 (≈ 19.8 µM) | 128 (≈ 158 µM) | 4 (≈ 4.95 µM) | 0.125 (≈ 0.155 µM) | 2 (≈ 2.47 µM) | 64 (≈ 79.2 µM) | 0.25 (≈ 0.309 µM) | 2 (≈ 2.47 µM) | 128 (≈ 158 µM) | 2 (≈ 2.47 µM) | 0.5 (≈ 0.619 µM) | 0.5 (≈ 0.619 µM) | 0.25 (≈ 0.309 µM) | 8 (≈ 9.9 µM)
CC(C)(O/N=C(\C(=O)N[C@@H]1C(=O)N2C(C(=O)[O-])=C(C[n+]3cnc(N)c(NCCNC(=O)c4cc(=O)c(O)cn4O)c3)CSC12)c1nsc(N)n1)C(=O)O (some centres unmarked) [Compound 16] | 1 (≈ 1.29 µM) | 1 (≈ 1.29 µM) | > 128 | 16 (≈ 20.7 µM) | 2 (≈ 2.58 µM) | 4 (≈ 5.16 µM) | 128 (≈ 165 µM) | 128 (≈ 165 µM) | 0.5 (≈ 0.645 µM) | 32 (≈ 41.3 µM) | > 128 | 2 (≈ 2.58 µM) | 32 (≈ 41.3 µM) | 2 (≈ 2.58 µM) | 1 (≈ 1.29 µM) | 0.25 (≈ 0.323 µM) | 0.25 (≈ 0.323 µM) | 2 (≈ 2.58 µM) | 8 (≈ 10.3 µM)
C[C@H](O/N=C(\C(=O)N[C@@H]1C(=O)N2C(C(=O)[O-])=C(C[n+]3cnc(N)c(NCCNC(=O)c4cc(=O)c(O)c[nH]4)c3)CSC12)c1nc(N)sc1Cl)C(=O)O (some centres unmarked) [Compound 17] | 0.125 (≈ 0.161 µM) | 2 (≈ 2.57 µM) | 4 (≈ 5.14 µM) | 2 (≈ 2.57 µM) | 2 (≈ 2.57 µM) | 4 (≈ 5.14 µM) | 32 (≈ 41.1 µM) | 1 (≈ 1.29 µM) | 8 (≈ 10.3 µM) | 2 (≈ 2.57 µM) | 32 (≈ 41.1 µM) | 4 (≈ 5.14 µM) | 1 (≈ 1.29 µM) | 16 (≈ 20.6 µM) | 1 (≈ 1.29 µM) | 0.5 (≈ 0.643 µM) | 8 (≈ 10.3 µM) | 2 (≈ 2.57 µM) | 4 (≈ 5.14 µM)
CC(C)(O/N=C(\C(=O)N[C@@H]1C(=O)N2C(C(=O)[O-])=C(C[n+]3cnc(N)c(NC(=O)CCNC(=O)c4cc(=O)c(O)cn4O)c3)CSC12)c1nc(N)sc1Cl)C(=O)O (some centres unmarked) [Compound 18] | 0.5 (≈ 0.598 µM) | 1 (≈ 1.2 µM) | 8 (≈ 9.57 µM) | 64 (≈ 76.5 µM) | 2 (≈ 2.39 µM) | 16 (≈ 19.1 µM) | 128 (≈ 153 µM) | 8 (≈ 9.57 µM) | 0.25 (≈ 0.299 µM) | 2 (≈ 2.39 µM) | 64 (≈ 76.5 µM) | 4 (≈ 4.78 µM) | 4 (≈ 4.78 µM) | 128 (≈ 153 µM) | 2 (≈ 2.39 µM) | 1 (≈ 1.2 µM) | 2 (≈ 2.39 µM) | 0.25 (≈ 0.299 µM) | 16 (≈ 19.1 µM)
CC(C)(O/N=C(\C(=O)N[C@@H]1C(=O)N2C(C(=O)[O-])=C(C[n+]3cnc(N)c(NC(=O)CCNC(=O)c4cc(=O)c(O)cn4O)c3)CSC12)c1nsc(N)n1)C(=O)O (some centres unmarked) [Compound 19] | 1 (≈ 1.25 µM) | 2 (≈ 2.49 µM) | 16 (≈ 19.9 µM) | 128 (≈ 159 µM) | 2 (≈ 2.49 µM) | 16 (≈ 19.9 µM) | 128 (≈ 159 µM) | 64 (≈ 79.7 µM) | 0.5 (≈ 0.623 µM) | 8 (≈ 9.97 µM) | > 128 | 1 (≈ 1.25 µM) | 16 (≈ 19.9 µM) | 4 (≈ 4.98 µM) | 1 (≈ 1.25 µM) | 0.5 (≈ 0.623 µM) | 0.5 (≈ 0.623 µM) | 2 (≈ 2.49 µM) | 16 (≈ 19.9 µM)
